Experimental data as given in patent publication US5608084A, “Lactones with antioxidising and hypolipidaemic activity useful in the therapy of the atherosclerosis” (priority 1994, dated 1997).

Legend:
[1] = system: B-100 apolipoprotein; test: Fragmentation of B-100 apolipoprotein on SDS-PAGE (oxidative modification of LDL); assay type: biochemical, human; details: 10 μM
Description: (§1) The determination of the melting point has been carried out by means of a capillary melting point apparatus Electrothermal, without any correction. The I.R. spectrum has been obtained by means of a Perkin-Elmer rood. 963/G spectrophotometer generally, when not otherwise specified, preparing the specimen in potassium bromide and recording the spectrum between 4000 and 600 nm. […] The mass spectrum has been recorded by using a VG 7070E mass spectrometer, at a 70 eV ionization voltage and with a 6 Kvolt acceleration voltage. […] Chem., 43, 2923, (1978). […] The antioxidant activity has been evaluated through the capability of some lactones of formula I to prevent and/or delay the oxidative modification of the lipoproteins (LDL), caused by a chemical method by incubating native LDL with cupric ions, according to the method described by Steinbrecher U. P. in J. Biol. Chem., 262, 3603-3608, (1987). The evaluation of the oxidation degree of the LDL through the monitoring of the concentration of aldehydes derived from the degradation of the lipidic peroxides and the observation of the modifications of the B-100 apolipoprotein represent the used experimental approach. The antioxidant activity of the lactones has been expressed in terms of duration of the latency period that represents a parameter of the resistance to the oxidation of the LDL. The LDL have been isolated from the human plasma obtained from blood collected, in the presence of EDTA, from healty volunteers fasting from 8 hours according to the method described by Havel H. in J. Clin. Invest., 34, 1345-1353, (1955). The solution, dialyzed in Visking-Serva dialysis tubes at 4° C. for 72 hours in phosphate buffer (PBS) added with EDTA (0.24 mM), has been filtered through a membrane with 0.45μ porosity (Millex HV Filters) and the proteic concentration has been determined according to the method described by Lowry O. et al. in J. Biol. Chem., 193, 265-275, (1951). The solution has been diluted with PBS-EDTA at a concentration of 500 μg protein/ml and the obtained LDL have been incubated at 42° C. for 45 minutes in presence of the lactones solubilized in ethanol (1.7 μl/ml LDL). At the end of the incubation the solutions have been placed on ice for 45 minutes and dialyzed at 4° C. for 36 hours in PBS. The oxidation of the LDL has been carried out with 5 μM cupric sulfate at 37° C. and stopped at the experimental times by cooling at 4° C. and adding 0.24 mM of EDTA. The solutions of LDL have been kept at 4° C. and sheltered from light during the experimental procedure. […] 52, (1978).
The inhibition of the oxidative process has been evaluated also by means of the study of the fragmentation of the B-100 apolipoprotein through the electrophoretic analysis on polyacrylamide gel in presence of sodium dodecylsulfate (SDS-PAGE), according to the method described by Laemmli U. K., in Nature, 227, 680, (1970). The quantitative evaluation of the disappearance of the B-100 apolipoprotein has been carried out by densitometric unidimensional measurement of the absorbance at λ=633nm, on an electrophoretic plate 13.5 cm long, after colouring with Coomassie Brillant Blue. The reagents used for the preparation and coloration of the gels, the reference standard (SDS-PAGE standards Broad Range--Cat. no. 161-0317), the gradient former (gradient former Bio-Rad Mod. 385) and the electrophoretic cell (Protean II) are Bio-Rad products; the feeder is a LKB Pharmacia Mod. 2197, the densitometer is a Pharmacia LKB Mod. 2222-020 Ultrascan XL with integrators LKB 2220 and LKB 2190 GelScan Software Package.

[2] = system: B-100 apolipoprotein; test: Relative electrophoretic mobility of oxidized LDL on agarose gel (surface-negative charge of B-100 apolipoprotein); assay type: biochemical, human; details: 10 μM; for REM (%) at 180': 180 minutes; for REM (%) at 180' / REM (%) at 360': native LDL = 0, copper-oxidized LDL with ethanol at 360 minutes = 100; for REM (%) at 360': 360 minutes
Description: as §1
The inhibition of the oxidative process has also been qualitatively studied through the evaluation of the modification of the surface-negative charge of the B-100 apolipoprotein by electrophoretic analysis on agarose gel, by using the method described in the kit "Titan gel Multi-slot lipo-17 electrophoresis system" (Cat. no. 3095), manufactured by Helena Laboratories.
The Bio-Phoresis Horizontal Electrophoresis Cell Bio-Rad (Cat. no. 1702900) has been used as electrophoretic cell. The modification of the surface-negative charge of the B-100 apolipoprotein, caused by the oxidation of the LDL, produces an increase of the anionic electrophoretic mobility. Therefore the evaluation of the varying of this electrophoretic datum, mobility in presence of antioxidant substances, represents an indirect measure of the antioxidant capabilities of the claimed compounds as reported by Vanderyse L. et al. in Atherosclerosis, 97, 187-199, (1992). […] The migration of the native LDL is taken as a reference equal to 0 (no electrophoretic migration), while the migration of the band of the copper-oxidized LDL at the time of 360 minutes, only in presence of ethanol, is taken as reference equal to 100.

[3] = system: LDL; details: in vitro, LDL incubated with antioxidizer; cited from earlier work
[4] = system: Watanabe rabbits, suffering from familial hypercholesterolaemia; details: cited from earlier work

Row | SMILES | Area of the B-100 apolipoprotein peak ([1]; 0 minutes) [AU/mm] | Area of the B-100 apolipoprotein peak ([1]; 60 minutes) [AU/mm] | Area of the B-100 apolipoprotein peak ([1]; 90 minutes) [AU/mm] | Area of the B-100 apolipoprotein peak ([1]; 120 minutes) [AU/mm] | Area of the B-100 apolipoprotein peak ([1]; 150 minutes) [AU/mm] | Area of the B-100 apolipoprotein peak ([1]; 180 minutes) [AU/mm] | Area of the B-100 apolipoprotein peak ([1]; 360 minutes) [AU/mm] | lowering of electrophoretic mobility of LDL compared with probucol [2] | REM (%) at 180' [2] [%] | REM (%) at 360' [2] [%] | atherogenic potentialities of the LDL [3] | LDL plasma levels [4] | atheromatous lesions [4]
1 | Cc1c(C)c2c(c(C)c1O)CCC(C)OC(=O)C(C)(C)CCCO2 (centres unmarked) [Example 3, 6,6,9,13,15,16-Hexamethyl-14-hydroxy-2,8-dioxabicyclo[10.4.0]hexadec-12,14,16-trien-7-one] | 2.2 | 2.0 | 1.9 | 1.6 | 1.5 | 1.5 | 1.5 | remarkably more effective than probucol | 15 | 30 |  |  | 
2 | CCC1CCc2c(C)c(O)c(C)c(C)c2OCCCC(C)(C)C(=O)O1 (centres unmarked) [Example 6, 9-Ethyl-14-hydroxy-6,6,13,15,16-pentamethyl-2,8-dioxabicyclo[10.4.0]hexadec-12,14,16-trien-7-one] | 2.5 | 2.3 | 2.1 | 2.0 | 1.7 | 1.6 | 1.6 | remarkably more effective than probucol | 15 | 30 |  |  | 
3 | CC(C)(Sc1cc(C(C)(C)C)c(O)c(C(C)(C)C)c1)Sc1cc(C(C)(C)C)c(O)c(C(C)(C)C)c1 [Probucol, reference compound] | 2.7 | 1.8 | 1.6 | 0.9 | 0.9 | 0.6 | 0.3 |  | 40 | 100 | remarkably lowered | does not substantially modify the LDL plasma levels | lowers the atheromatous lesions
